What was measured:
Type in all cases: cell-based, human
[1] = test system: BJ-TERT/LT/ST/RAS^V12 cells; assay: Pan-caspase inhibitor block of compound-induced cell death; settings: 50 μM inhibitor
reactive oxygen species = assay: ROS analysis, flow cytometry using H2DCF-DA; settings: engineered cells
Excerpt: 2′7′ dichlorodihydrofluorescein diacetate (H2DCF-DA) is a non-fluorescent cell permeable compound. The endogenous esterase enzyme inside the cell cleaves the diacetate part, and it can no longer pass out of the cell. Thus it accumulates in the cell. Then H2DCF reacts with ROS to form fluorescent dichlorofluorescene (DCF) which can be measured by flow cytometry in FL1 channel. • 1. Seed cells at 3×10^5 cells per dish in 60 mm dishes and allow to grow overnight. • 2. Treat with the test compound for different period of time (1-10 hr). • 3. Maintain one dish for untreated cells, compound treated cell and positive control dish (hydrogen peroxide treated) for each time point. • 4. Incubate the cells with 10 μM of H2DCF-DA for 10 minutes at 37° C. • 5. For positive control cells, after 5 minutes of H2DCF-DA loading, add 500 μM of hydrogen peroxide and incubate for 5 minutes further. • 6. Harvest the cell by trypsinization. • 7. Wash with cold PBS-twice. • 8. Resuspend the pellet in 100 μl of PBS and transfer into 5 ml FACS tube. • 9. Add 5 μl of propidium iodide (50 μg/ml) and incubate for 10 minutes on ice in dark. • 10. Add 400 μl of PBS and analyze by flow cytometry (Becton-Dickinson). • 11. Acquire the data and analyze using CellQuest software program. • 12. Take only propidium iodiode negative cells (viable cells) for the analysis for DCF staining using the FL1 channel, PI in FL3 channel, plot a quadrant chart.

[2] = test system: BJ-TERT/LT/ST/RAS^V12 cells; assay: Calcein AM viability assay, dilution series, BJ-TERT/LT/ST/RAS^V12 tumorigenic cells
Description: Described here is work carried out to identify compounds with increased potency or activity in the presence of hTERT, LT, ST, E6, E7 or RAS^V12. […] The primary screen tested (in quadruplicate) the effect of treating tumorigenic […], corresponding to 10 μM for a compound with a molecular weight of 400, which is the approximate median molecular weight of the libraries. […] In live cells, calcein AM is cleaved by intracellular esterases, forming the anionic fluorescent derivative calcein, which cannot diffuse out of live cells. […] The IC50 value (concentration required to inhibit 50% of the calcein AM signal) was calculated for each compound in each cell line (Table 1).
Calcein acetoxylmethyl ester (AM) is a cell membrane-permeable, non-fluorescent compound that is cleaved by intracellular esterases to form the anionic, cell-impermeable, fluorescent compound calcein. Viable cells are stained by calcein because of the presence of intracellular esterases and because the intact plasma membrane prevents fluorescent calcein from leaking out of cells (Wang et al., 1993, supra). Cells were seeded in 384-well plates using a Zymark Sciclone ALH, treated with each […], washed with phosphate-buffered saline on a Packard Minitrak with a 384-well washer and incubated for four hours with 0.7 μg/mL calcein (Molecular Probes). Total fluorescence intensity in each well was recorded on a Packard Fusion platereader, and converted to a percent inhibition of signal by subtracting the instrument background and dividing by the average signal obtained when cells were not treated with any compound.
Compounds to be retested were purchased from manufacturers. Stocks were prepared in DMSO at a concentration of 1 mg/ml in 384-well polypropylene plates with a 16-point, two-fold dilution dose curve of each compound in a column, in duplicates. Column 1-2 and 23-24 were left empty for controls. Daughter retest plates were prepared from stock retest plate by diluting 66.6 fold in DMEM in 384-well deep-deep well plates (4.5 μl transfer into 300 μl). Cells were seeded at a density of 6000 per well in 40 μl, and 20 μl was added from a daughter retest plate. […]
The IC50 in primary BJ cells was divided by the IC50 in BJ-TERT/LT/ST/RAS^V12 tumorigenic cells to obtain a tumor selectivity ratio for each compound. The compound selectivity for each genetic element was determined by calculating the selectivity ratio for each subsequent pair of cell lines in a series.

TOP1 = assay: Western blot of TOP1 expression in okadaic acid-treated BJ primary cells
Excerpt: (A-C) Western blot of lysates from BJ, BJ-TERT, BJ-TERT/LT/ST, BJ-TERT/LT/ST/RAS^V12, BJ-TERT/LT/RAS^V12 and BJ-TERT/LT/RAS^V12/ST cells with an antibody directed against topoisomerase II (A) or TOPI (B, C). In panel (C), cells were transfected with an siRNA directed against TOPI, lamic A/C or with a control double strand DNA duplex of the same length (TOPI dsDNA). In each case, the blot was probed with an antibody against eIF-4E to identify differences in the amount of protein loaded. The relative amount is quantitated below each band. […] Cell number was determined after transfection with an siRNA directed against TOPI and treatment with the indicated concentrations of camptothecin. (E) Okadaic acid, an inhibitor of PP2A and other cellular phosphatases, sensitizes primary human cells to camptothecin. BJ primary cells were treated simultaneously with the indicated concentrations of both camptothecin and okadaic acid and the effect on calcein AM viability staining was determined. […] BJ primary cells were treated with the indicated concentrations of okadaic acid and the expression level of TOPI was determined by western blot. The relative amount is quantitated below each band. […]

BJ primary cells = assay: Co-treatment of BJ primary cells with camptothecin or erastin and a second compound, calcein AM viability staining; settings: for effect on BJ cell viability on its own: calcein AM; for sensitization of BJ cells to camptothecin: simultaneous treatment with camptothecin
Excerpt: (A-C) Western blot of lysates from BJ, BJ-TERT, BJ-TERT/LT/ST, BJ-TERT/LT/ST/RAS^V12, BJ-TERT/LT/RAS^V12 and BJ-TERT/LT/RAS^V12/ST cells with an antibody directed against topoisomerase II (A) or TOPI (B, C). In panel (C), cells were transfected with an siRNA directed against TOPI, lamic A/C or with a control double strand DNA duplex of the same length (TOPI dsDNA). In each case, the blot was probed with an antibody against eIF-4E to identify differences in the amount of protein loaded. The relative amount is quantitated below each band. […] Cell number was determined after transfection with an siRNA directed against TOPI and treatment with the indicated concentrations of camptothecin. (E) Okadaic acid, an inhibitor of PP2A and other cellular phosphatases, sensitizes primary human cells to camptothecin. BJ primary cells were treated simultaneously with the indicated concentrations of both camptothecin and okadaic acid and the effect on calcein AM viability staining was determined. […] BJ primary cells were treated with the indicated concentrations of okadaic acid and the expression level of TOPI was determined by western blot. The relative amount is quantitated below each band.
The compounds in group (iii) are camptothecin (CPT) and a novel compound from a combinatorial library, which Applicants have named erastin, for eradicator of RAS and ST-expressing cells (FIG. 2). Efficient CPT-induced and erastin-induced cell death requires the presence of both ST and RAS^V12 (FIGS. 3 and 4 and Table 1). Although CPT and erastin have a similar genetic basis of selectivity, they have distinct mechanisms of action. […] The phosphatase inhibitor okadaic acid was capable of sensitizing otherwise resistant BJ primary cells to CPT (FIG. 5E), possibly because okadaic acid upregulates TOP1 (FIG. 5F).

BJELR cells = assay: Screen of ACL library for suppressors of erastin activity in BJELR cells; settings: 5 μg/ml erastin
Description: ACL library comprises 1,540 compounds and all compounds were prepared in DMSO at […] in 384-well polypropylene plates and stored at −20° C. Replica daughter plates for each library plate were prepared using Zymark Scilone ALH. The daughter plates were diluted 50 fold in DMEM and compound concentration in the daughter plate is 80 μg/ml with 2% DMSO. In assay plate compound from the daughter plate is diluted 20 fold with cell suspension, thus final concentration of each compound is 4 μg/ml.
BJELR cells were seeded at 6000 cells/well (57 μl) (for co-treatment screen) and 5000 cells/well (57 μl) (for pretreatment screen) in 384-well black, clear bottom plates using syringe bulk dispenser. For co-treatment suppressor screen, cells were treated with 3 μl of compound from the daughter plates of ACL library (final concentration in assay plate at 4 μg/ml) and at the same time treated with 5 μg/ml of erastin. Compound transfer was done using 384 fixed cannula head. Plates were incubated for 48 hours at 37° C. in incubator with 5% CO2. For the pretreatment screens, cells were pre-incubated with the compound from ACL daughter library plate for overnight and then treated with 5 μg/ml of erastin for further 48 hours. […] Fluorescence intensity was determined using Fusion platereader with filters centered in an excitation of 485 nm and emission of 535 nm. […]

[3] = test system: tumor cells (BJELR cells) versus normal cells (BJEH cells); assay: Testing of erastin analogs for activity and selectivity in tumor cells versus normal cells
Excerpt: Applicants additionally tested 135 analogs of erastin for activity and selectivity in tumor cells versus normal cells. […] This compound was named erastin B (see FIG. 8). […] BJELR cells are BJ-TERT/LT/ST/RAS^V12 cells, and BJEH are BJ-TERT cells.

**Q.** COC(=O)CC(NC(=O)OC(C)(C)C)C(=O)CF [BOC-D-FMK, Boc-Asp(Ome)-fluoromethyl ketone] was tested. Which “block of cell death induced by CPT” value [1] did it give?
**A.** partially blocked cell death induced by CPT

**Q.** And the “block of cell death induced by erastin” value [1]?
**A.** not by erastin

**Q.** How did the “formation of reactive oxygen species” value (reactive oxygen species) turn out when COc1cccc2c1C(=O)c1c(O)c3c(c(O)c1C2=O)C[C@@](O)(C(C)=O)C[C@@H]3O[C@H]1C[C@H](N)[C@H](O)[C@H](C)O1 [Daunorubicin, daunorubicin] was run?
**A.** did not observe the formation of ROS

**Q.** Which “formation of reactive oxygen species” value (reactive oxygen species) does the source give for COc1cccc2c1C(=O)c1c(O)c3c(c(O)c1C2=O)C[C@@](O)(C(=O)CO)C[C@@H]3O[C@H]1C[C@H](N)[C@H](O)[C@H](C)O1 [Doxorubicin, doxorubicin] here?
**A.** did not observe the formation of ROS

**Q.** Which “effectiveness of cell death” value ([2]; BJ-TERT/LT/ST/RAS^V12 cells, within 18 hours) does the source give for CCOc1ccccc1-n1c(C(C)N2CCN(C(=O)COc3ccc(Cl)cc3)CC2)nc2ccccc2c1=O (stereo not drawn) [Erastin, erastin] here?
**A.** 100%

**Q.** With O=C1c2c(O)ccc(O)c2C(=O)c2c(NCCNCCO)ccc(NCCNCCO)c21 [Mitoxantrone, mitoxantrone] as the compound, how does the “Tumor Selectivity” value ([2]; IC50 in primary BJ cells divided by IC50 in BJ-TERT/LT/ST/RAS^V12 tumorigenic cells) read?
**A.** 16

**Q.** And the “formation of reactive oxygen species” value (reactive oxygen species)?
**A.** did not observe the formation of ROS

**Q.** How did the “expression level of TOP1” value (TOP1) turn out when C=C1[C@@H](O)[C@@H]2O[C@]3(CC[C@H](/C=C/[C@@H](C)[C@@H]4CC(C)=C[C@@]5(O[C@H](C[C@@](C)(O)C(=O)O)CC[C@H]5O)O4)O3)CC[C@H]2O[C@@H]1[C@@H](O)C[C@H](C)[C@H]1O[C@@]2(CCCCO2)CC[C@H]1C [okadaic acid] was run?
**A.** stimulates expression of TOP1

**Q.** What about the “sensitization of BJ or BJ-TERT cells to erastin” value (BJ primary cells) of the same compound?
**A.** does not render BJ or BJ-TERT cells sensitive to erastin

**Q.** And the “effect on BJ cell viability on its own” value (BJ primary cells; 3.4 nM)?
**A.** no effect on its own

**Q.** And the “effect on BJ cell viability on its own” value (BJ primary cells; highest concentrations tested)?
**A.** kills BJ cells

**Q.** What about the “sensitization of BJ cells to camptothecin” value (BJ primary cells) of the same compound?
**A.** renders BJ cells sensitive to camptothecin

**Q.** COc1cc([C@@H]2c3cc4c(cc3[C@H](O)[C@H]3COC(=O)[C@H]23)OCO4)cc(OC)c1OC [podophyllotoxin] was tested. Which “sensitization of BJ cells to camptothecin” value (BJ primary cells) did it give?
**A.** does not sensitize BJ or BJ-TERT cells to CPT

**Q.** With Cc1c(C)c2c(c(C)c1O)CC[C@@](C)(CCC[C@H](C)CCC[C@H](C)CCCC(C)C)O2 [α-tocopherol] as the compound, how does the “suppression of erastin activity” value (BJELR cells) read?
**A.** suppress erastin activity

**Q.** For erastin B, which “activity and selectivity in tumor cells versus normal cells” value [3] is on record?
**A.** active and selective, but less potent than erastin

Reference: patent US8124365B2, “Identification of genotype-selective anti-tumor agents” (Whitehead Institute for Biomedical Research, priority 2003, dated 2012)
